Source: publication PMC12211128, “Safety, tolerability, pharmacokinetic and pharmacodynamic effects of the muscarinic M1 positive allosteric modulator VU0467319 for Alzheimer’s disease: a single ascending-dose study in healthy participants” (Alzheimer's Research & Therapy, 2025)

Tests used:
healthy participants [1] = test: Clinical laboratory parameters; type: in vivo, human; settings: food effect study, 120 mg; 72 h post-dose, closer to normal by 144 h
Description: Safety and tolerability were assessed throughout the study via treatment emergent adverse event (TEAE) monitoring, vital signs (blood pressure, pulse rate, respiration rate, oral temperature), physical examinations, 12-lead ECGs, and clinical laboratory parameters including complete blood count (CBC), coagulation, hematology, clinical chemistry assessments, and urinalysis. Safety laboratory tests were drawn at pre-dose and at 5, 24, 36 and 144-hours post-dose for 60–400 mg Cohorts; and at 24, 48, 72 and 144-hours post-dose for the 600 mg and Food Effect Cohort. ECG assessments were conducted at pre-dose and at 1, 2, 3, 5, 9, 24, 36 and 144-hours post-dose for 60–400 mg Cohorts; and at 2, 3, 5, 9, 24, 36, 72 and 144-hours post-dose for the 600 mg and Food Effect Cohort. All adverse events (AEs) were assessed by the investigator for severity and relationship to study medication or study procedures.

healthy participants [2] = test: N-back sequential letter task; type: in vivo, human; settings: for N-Back 0-back Sensitivity (d’) / N-Back 1-back Sensitivity / N-Back 2-back Sensitivity / N-Back 3-back Sensitivity: mean (SD)
Source text: A visually presented N-back sequential letter task was used to assess working memory performance, wherein participants saw a string of consonants (except L, W, and Y), presented in upper case letters, one every 3 s. Four conditions were presented: 0-back, 1-back, 2-back, and 3-back. The main outcome variable of the n-back task was sensitivity (d’) for each of the four conditions, calculated as: d’ = Z (Hit)– Z (False alarms).
Cognitive data: In this exploratory analysis, each outcome variable of the cognitive data was examined in a mixed model analysis of variance with one between-subjects factor of VU319 dose (0, 60, 120, 240, 400, 600 mg) and a within-subjects factor of testing session (pre-dose vs. post-dost administration). Post-hoc analysis compared each of the VU319 dose cohorts against the placebo group. Because the participants were healthy adults with normal cognitive function, we considered effects between no reductions in function to small improvement (d = 0.0–0.20) to be a positive result. For the food effect study, only the participants who received VU319 were examined due to the disproportionately small placebo group (n = 2). A within-subjects ANOVA including food condition (fasted/fed) and testing session (pre-dose vs. post-dose administration) was performed on each outcome variable.
A visually presented N-back sequential letter task (Jonides et al., 1997; Saykin et al., 2004) was used to assess working memory performance, wherein participants saw a string of consonants (except L, W, and Y), presented in upper case letters, one every 3 s. Four conditions were presented: 0-back, 1-back, 2-back, and 3-back. The 0-back control condition required participants to decide if the current letter matched a single target letter that was specified before the epoch began. In each of the 1-back, 2-back, and 3-back conditions, the task is to decide whether the letter currently presented matches the letter that has been presented 1, 2, or 3 back in the sequence. The 0-, 1-, 2-, and 3-back conditions were performed in two blocks of 27 trials each for a total of 216 trials. The blocks were presented in a counterbalanced order such that the same condition was not repeated two times in a row. The main outcome variable of the n-back task was sensitivity (d’) for each of the four conditions, calculated as: d’ = Z (Hit) – Z (False alarms).

[3] = Food effect study 120 mg, Fasting, Post-Drug
[4] = Food effect study 120 mg, Fasting, Pre-Drug
[5] = Food effect study 120 mg, Fed, Post-Drug
[6] = Food effect study 120 mg, Fed, Pre-Drug

Cn1cc2c(-c3cc(F)c(CN4Cc5ncccc5C4=O)c(F)c3)cccc2n1 [VU319]
ALT and AST levels (healthy participants [1]): moderate increase in ALT and AST levels reported by one participant | N-back 2-back d', vs placebo, effect size d (healthy participants [2]; 400 mg, p = 0.12): 0.87 | N-back 1-back d', vs placebo, effect size d (healthy participants [2]; 600 mg, p = 0.12): 0.86 | N-Back 0-back Sensitivity (d’) (healthy participants [2]; [3]): 5.15 (1.1) | N-Back 1-back Sensitivity (healthy participants [2]; [3]): 3.38 (2.09) | N-Back 2-back Sensitivity (healthy participants [2]; [3]): 2.3 (1.64) | N-Back 3-back Sensitivity (healthy participants [2]; [3]): 1.96 (1.4) | N-Back 0-back Sensitivity (d’) (healthy participants [2]; [4]): 4.64 (1.22) | N-Back 1-back Sensitivity (healthy participants [2]; [4]): 5.01 (0.93) | N-Back 2-back Sensitivity (healthy participants [2]; [4]): 3.79 (1.18) | N-Back 3-back Sensitivity (healthy participants [2]; [4]): 2.55 (1.42) | N-Back 0-back Sensitivity (d’) (healthy participants [2]; [5]): 4.62 (1.32) | N-Back 1-back Sensitivity (healthy participants [2]; [5]): 4.13 (1.6) | N-Back 2-back Sensitivity (healthy participants [2]; [5]): 2.89 (1.42) | N-Back 3-back Sensitivity (healthy participants [2]; [5]): 2.53 (0.97) | N-Back 0-back Sensitivity (d’) (healthy participants [2]; [6]): 4.67 (1.4) | N-Back 1-back Sensitivity (healthy participants [2]; [6]): 5.42 (0.99) | N-Back 2-back Sensitivity (healthy participants [2]; [6]): 3.75 (1.21) | N-Back 3-back Sensitivity (healthy participants [2]; [6]): 2.29 (0.65) | N-Back 0-back Sensitivity (d’) (healthy participants [2]; SAD study, 60 mg, Post-Drug): 5.37 (1.26) | N-Back 1-back Sensitivity (healthy participants [2]; SAD study, 60 mg, Post-Drug): 4.99 (1.48) | N-Back 2-back Sensitivity (healthy participants [2]; SAD study, 60 mg, Post-Drug): 3.12 (1.22) | N-Back 3-back Sensitivity (healthy participants [2]; SAD study, 60 mg, Post-Drug): 2.11 (0.36) | N-Back 0-back Sensitivity (d’) (healthy participants [2]; SAD study, 60 mg, Pre-Drug): 5.64 (0.84) | N-Back 1-back Sensitivity (healthy participants [2]; SAD study, 60 mg, Pre-Drug): 5.01 (1.17) | N-Back 2-back Sensitivity (healthy participants [2]; SAD study, 60 mg, Pre-Drug): 3.35 (0.91) | N-Back 3-back Sensitivity (healthy participants [2]; SAD study, 60 mg, Pre-Drug): 2.65 (0.49) | N-Back 0-back Sensitivity (d’) (healthy participants [2]; SAD study, 120 mg, Post-Drug): 5.37 (1.26) | N-Back 1-back Sensitivity (healthy participants [2]; SAD study, 120 mg, Post-Drug): 4.46 (1.35) | N-Back 2-back Sensitivity (healthy participants [2]; SAD study, 120 mg, Post-Drug): 3.25 (2.19) | N-Back 3-back Sensitivity (healthy participants [2]; SAD study, 120 mg, Post-Drug): 1.75 (1.14) | N-Back 0-back Sensitivity (d’) (healthy participants [2]; SAD study, 120 mg, Pre-Drug): 5.64 (0.84) | N-Back 1-back Sensitivity (healthy participants [2]; SAD study, 120 mg, Pre-Drug): 4.91 (1.08) | N-Back 2-back Sensitivity (healthy participants [2]; SAD study, 120 mg, Pre-Drug): 3.28 (1.98) | N-Back 3-back Sensitivity (healthy participants [2]; SAD study, 120 mg, Pre-Drug): 2.34 (1.12) | N-Back 0-back Sensitivity (d’) (healthy participants [2]; SAD study, 240 mg, Post-Drug): 6.18 (0) | N-Back 1-back Sensitivity (healthy participants [2]; SAD study, 240 mg, Post-Drug): 4.32 (2.3) | N-Back 2-back Sensitivity (healthy participants [2]; SAD study, 240 mg, Post-Drug): 3.42 (2.29) | N-Back 3-back Sensitivity (healthy participants [2]; SAD study, 240 mg, Post-Drug): 1.66 (0.83) | N-Back 0-back Sensitivity (d’) (healthy participants [2]; SAD study, 240 mg, Pre-Drug): 6.18 (0) | N-Back 1-back Sensitivity (healthy participants [2]; SAD study, 240 mg, Pre-Drug): 4.72 (2.02) | N-Back 2-back Sensitivity (healthy participants [2]; SAD study, 240 mg, Pre-Drug): 3.77 (1.84) | N-Back 3-back Sensitivity (healthy participants [2]; SAD study, 240 mg, Pre-Drug): 2.37 (0.81) | N-Back 0-back Sensitivity (d’) (healthy participants [2]; SAD study, 400 mg, Post-Drug): 6.18 (0) | N-Back 1-back Sensitivity (healthy participants [2]; SAD study, 400 mg, Post-Drug): 5.37 (1.26) | N-Back 2-back Sensitivity (healthy participants [2]; SAD study, 400 mg, Post-Drug): 3.6 (1.84) | N-Back 3-back Sensitivity (healthy participants [2]; SAD study, 400 mg, Post-Drug): 2.01 (0.74) | N-Back 0-back Sensitivity (d’) (healthy participants [2]; SAD study, 400 mg, Pre-Drug): 6.18 (0) | N-Back 1-back Sensitivity (healthy participants [2]; SAD study, 400 mg, Pre-Drug): 5.64 (0.84) | N-Back 2-back Sensitivity (healthy participants [2]; SAD study, 400 mg, Pre-Drug): 3.54 (1.69) | N-Back 3-back Sensitivity (healthy participants [2]; SAD study, 400 mg, Pre-Drug): 2.34 (0.74) | N-Back 0-back Sensitivity (d’) (healthy participants [2]; SAD study, 600 mg, Post-Drug): 5.27 (1.43) | N-Back 1-back Sensitivity (healthy participants [2]; SAD study, 600 mg, Post-Drug): 5.09 (1.06) | N-Back 2-back Sensitivity (healthy participants [2]; SAD study, 600 mg, Post-Drug): 4.43 (1.72) | N-Back 3-back Sensitivity (healthy participants [2]; SAD study, 600 mg, Post-Drug): 2.94 (1.3) | N-Back 0-back Sensitivity (d’) (healthy participants [2]; SAD study, 600 mg, Pre-Drug): 5.57 (0.95) | N-Back 1-back Sensitivity (healthy participants [2]; SAD study, 600 mg, Pre-Drug): 5.07 (0.59) | N-Back 2-back Sensitivity (healthy participants [2]; SAD study, 600 mg, Pre-Drug): 4.31 (1.69) | N-Back 3-back Sensitivity (healthy participants [2]; SAD study, 600 mg, Pre-Drug): 3.3 (1.02) | N-back d' score, effect of dose (healthy participants [2]; SAD study, four conditions, all p > 0.2): did not show a significant effect of dose, nor dose by time | N-back 2-back sensitivity, effect of time of testing, effect size d (healthy participants [2]; food effect study, 120 mg, p = 0.004, not related to food condition): 2.55 | N-back 1-back sensitivity, effect of time of testing, effect size d (healthy participants [2]; food effect study, 120 mg, p = 0.015, not related to food condition): 2.0
